Test results published in ChEMBL document CHEMBL1201862, “PubChem BioAssay data set” (2004).
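Method: 48-hour compound exposure of cells in 96-well plates, five concentrations, linear interpolation of endpoints. GI50 is the concentration that inhibits growth by half.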 Activity calls are given as the source filed them. No stated cut-off is given here; in the data, active = GI50 up to about 1.1 µM and inactive = higher.

Legend:
Test in all cases: inhibition of tumour cell growth, NCI panel, 48 h
[1] = system: HL-60
[2] = system: CAKI-1
[3] = system: UACC-62
[4] = system: RXF 393
[5] = system: BT-549
[6] = system: MDA-MB-231
[7] = system: EKVX
[8] = system: UACC-257
[9] = system: HCT-15
[10] = system: SR
[11] = system: LOX IMVI
[12] = system: OVCAR-4
[13] = system: SNB-75
[14] = system: Hs-578T
[15] = system: KM12
[16] = system: T47D
[17] = system: NCI/ADR-RES
[18] = system: UO-31
[19] = system: NCI-H522
[20] = system: CCRF-CEM

| SMILES | GI50 [1] | GI50 [2] | GI50 [3] | GI50 [4] | GI50 [5] | GI50 [6] | GI50 [7] | GI50 [8] | GI50 [9] | GI50 [10] | GI50 [11] | GI50 [12] | GI50 [13] | GI50 [14] | GI50 [15] | GI50 [16] | GI50 [17] | GI50 [18] | GI50 [19] | GI50 [20] |
| --- | --- | --- | --- | --- | --- | --- | --- | --- | --- | --- | --- | --- | --- | --- | --- | --- | --- | --- | --- | --- |
| O=S1(=O)NC2CCC3NS(=O)(=O)NC4CCC(N1)N4S(=O)(=O)N23 (stereo unspecified) | > 100 µM (inactive) | > 100 µM (inactive) | > 100 µM (inactive) | > 100 µM (inactive) | > 100 µM (inactive) | > 100 µM (inactive) | > 100 µM (inactive) | > 100 µM (inactive) | > 100 µM | > 100 µM (inactive) | > 100 µM (inactive) | > 100 µM (inactive) | > 100 µM (inactive) | > 100 µM (inactive) | > 100 µM (inactive) | > 100 µM (inactive) | > 100 µM (inactive) | > 100 µM (inactive) | > 100 µM (inactive) | – |
| O=[N+]([O-])C(C(Cl)=C(Cl)Cl)=C(N1CCCCC1)N1CCCCC1 | 33.4 µM (inactive) | 58.6 µM (inactive) | > 100 µM (inactive) | 63.1 µM (inactive) | > 100 µM (inactive) | > 100 µM (inactive) | > 100 µM (inactive) | 63.4 µM (inactive) | > 100 µM | 33.8 µM (inactive) | 55 µM (inactive) | > 100 µM (inactive) | > 100 µM (inactive) | 13.8 µM (inactive) | > 100 µM (inactive) | 45.6 µM (inactive) | > 100 µM (inactive) | 22.1 µM (inactive) | – | 41.9 µM (inactive) |
| Nc1c(C(=O)O)nnc2cc(Cl)ccc12 | > 100 µM (inactive) | > 100 µM (inactive) | 32 µM (inactive) | – | > 100 µM (inactive) | > 100 µM (inactive) | > 100 µM (inactive) | > 100 µM (inactive) | > 100 µM | > 100 µM (inactive) | > 100 µM (inactive) | > 100 µM (inactive) | > 100 µM (inactive) | > 100 µM (inactive) | > 100 µM (inactive) | > 100 µM (inactive) | > 100 µM (inactive) | > 100 µM (inactive) | > 100 µM (inactive) | > 100 µM (inactive) |
| Oc1cc(-c2cccc(Cl)c2)nc2cc3c(cc12)OCO3 | 0.157 µM (active) | – | 0.201 µM (active) | – | 0.284 µM (active) | 2.44 µM (inactive) | – | 0.366 µM (active) | 0.269 µM | 0.342 µM (active) | 0.305 µM (active) | > 75 µM (inactive) | 0.258 µM (active) | 0.255 µM (active) | 0.24 µM (active) | 10.6 µM (inactive) | 0.208 µM (active) | 0.33 µM (active) | 0.334 µM (active) | 0.519 µM (active) |
| Brc1cc2nn(-c3ccccc3)nc2c2nonc12 | > 100 µM (inactive) | > 100 µM (inactive) | > 100 µM (inactive) | – | > 100 µM (inactive) | > 100 µM (inactive) | > 100 µM (inactive) | > 100 µM (inactive) | > 100 µM | > 100 µM (inactive) | > 100 µM (inactive) | > 100 µM (inactive) | > 100 µM (inactive) | > 100 µM (inactive) | > 100 µM (inactive) | 28.4 µM (inactive) | > 100 µM (inactive) | > 100 µM (inactive) | > 100 µM (inactive) | > 100 µM (inactive) |
| O=C(O)C(Oc1nc(S)nc(S)n1)(c1ccc(Cl)cc1)c1ccc(Cl)cc1 | > 100 µM (inactive) | > 100 µM (inactive) | > 100 µM (inactive) | > 100 µM (inactive) | > 100 µM (inactive) | > 100 µM (inactive) | > 100 µM (inactive) | > 100 µM (inactive) | > 100 µM | > 100 µM (inactive) | > 100 µM (inactive) | > 100 µM (inactive) | > 100 µM (inactive) | > 100 µM (inactive) | > 100 µM (inactive) | > 100 µM (inactive) | > 100 µM (inactive) | > 100 µM (inactive) | > 100 µM (inactive) | – |
| O=C(O)c1cc2ccccc2c(/N=N/c2ccc(S(=O)(=O)Nc3ccccn3)cc2)c1O | > 100 µM (inactive) | > 100 µM (inactive) | > 100 µM (inactive) | > 100 µM (inactive) | > 100 µM (inactive) | > 100 µM (inactive) | > 100 µM (inactive) | > 100 µM (inactive) | > 100 µM | > 100 µM (inactive) | – | > 100 µM (inactive) | > 100 µM (inactive) | > 100 µM (inactive) | > 100 µM (inactive) | > 100 µM (inactive) | > 100 µM (inactive) | > 100 µM (inactive) | > 100 µM (inactive) | > 100 µM (inactive) |
| O=c1oc2ccc3ccccc3c2cc1-c1cn2ccccc2n1 | > 100 µM (inactive) | 11.8 µM (inactive) | > 100 µM (inactive) | > 100 µM (inactive) | > 100 µM (inactive) | 24.2 µM (inactive) | 30.5 µM (inactive) | > 100 µM (inactive) | > 100 µM | > 100 µM (inactive) | 91.8 µM (inactive) | – | > 100 µM (inactive) | 35.6 µM (inactive) | 57.7 µM (inactive) | > 100 µM (inactive) | > 100 µM (inactive) | 20 µM (inactive) | 26.3 µM (inactive) | > 100 µM (inactive) |
| Cc1cc(S(=O)(=O)N=C2NCC(C)(C)CN2)c(S)cc1Cl | 25.8 µM (inactive) | 52 µM (inactive) | 25.3 µM (inactive) | 38 µM (inactive) | 29.5 µM (inactive) | 43.4 µM (inactive) | 48.8 µM (inactive) | 42.3 µM (inactive) | 42.7 µM | 37.9 µM (inactive) | 15.5 µM (inactive) | 17.6 µM (inactive) | 48.5 µM (inactive) | 32 µM (inactive) | 30.8 µM (inactive) | 42.1 µM (inactive) | 50.8 µM (inactive) | 44.1 µM (inactive) | 27.9 µM (inactive) | – |
| O=C(O)C1CC(c2ccc(F)cc2)=Nc2ccc(F)cc2S1 (stereo unspecified) | > 100 µM (inactive) | > 100 µM (inactive) | > 100 µM (inactive) | > 100 µM (inactive) | > 100 µM (inactive) | > 100 µM (inactive) | > 100 µM (inactive) | > 100 µM (inactive) | > 100 µM | > 10 µM (inactive) | – | > 100 µM (inactive) | > 100 µM (inactive) | > 100 µM (inactive) | > 100 µM (inactive) | > 100 µM (inactive) | > 100 µM (inactive) | > 100 µM (inactive) | > 100 µM (inactive) | > 100 µM (inactive) |
| COC(=O)CCc1cc(OC)c2oc(-c3ccc(OC)c(OC)c3)c(CO)c2c1 | > 100 µM (inactive) | > 100 µM (inactive) | > 100 µM (inactive) | – | > 100 µM (inactive) | > 100 µM (inactive) | > 100 µM (inactive) | > 100 µM (inactive) | > 100 µM | 56 µM (inactive) | > 100 µM (inactive) | > 100 µM (inactive) | – | > 100 µM (inactive) | > 100 µM (inactive) | 86.7 µM (inactive) | > 100 µM (inactive) | > 100 µM (inactive) | > 100 µM (inactive) | > 100 µM (inactive) |
| CCCc1cn2c(/C=N/NC(=N)N)c(-c3ccc(Cl)c([N+](=O)[O-])c3)nc2s1 | 1.2 µM (inactive) | 1.82 µM (inactive) | 1.95 µM (inactive) | 1.68 µM (inactive) | 1.68 µM (inactive) | 1.86 µM (inactive) | – | 1.61 µM (inactive) | 1.7 µM | 1.25 µM (inactive) | 1.7 µM (inactive) | 1.06 µM (active) | 1.74 µM (inactive) | 2.01 µM (inactive) | 1.33 µM (inactive) | 1.42 µM (inactive) | 2.21 µM (inactive) | 1.76 µM (inactive) | 1.98 µM (inactive) | 0.192 µM (active) |
| O=C1C=CC2(O[C@H](c3ccccc3)[C@@H](c3ccccc3)O2)C(SC(=O)c2ccccc2)C1 (stereo partly specified) | 1.84 µM (inactive) | 1.67 µM (inactive) | 2.34 µM (inactive) | 0.182 µM (active) | 0.433 µM (active) | 3.9 µM (inactive) | 0.182 µM (active) | 1.79 µM (inactive) | 0.673 µM | 0.256 µM (active) | 1.12 µM (inactive) | 1.63 µM (inactive) | 2.09 µM (inactive) | 1.62 µM (inactive) | 2.27 µM (inactive) | 2.06 µM (inactive) | 1.57 µM (inactive) | 1.37 µM (inactive) | – | – |
| NC1CC(=O)c2cc(Cl)sc21 (stereo unspecified) | > 100 µM (inactive) | > 100 µM (inactive) | > 100 µM (inactive) | > 100 µM (inactive) | > 100 µM (inactive) | > 100 µM (inactive) | > 100 µM (inactive) | > 100 µM (inactive) | > 100 µM | – | > 100 µM (inactive) | > 100 µM (inactive) | > 100 µM (inactive) | > 100 µM (inactive) | > 100 µM (inactive) | > 100 µM (inactive) | > 100 µM (inactive) | > 100 µM (inactive) | > 100 µM (inactive) | > 100 µM (inactive) |
| Cc1ccc2c(c1)C(O)(c1ccccc1)CCS2 (stereo unspecified) | 28.2 µM (inactive) | 22 µM (inactive) | 22.4 µM (inactive) | 68.5 µM (inactive) | 27.3 µM (inactive) | 18 µM (inactive) | 51.4 µM (inactive) | 42 µM (inactive) | 19.5 µM | 18.3 µM (inactive) | 19.9 µM (inactive) | 43.4 µM (inactive) | 48.2 µM (inactive) | 34.1 µM (inactive) | 22.6 µM (inactive) | 28.2 µM (inactive) | 34 µM (inactive) | 19.2 µM (inactive) | 19.7 µM (inactive) | – |
